Source: patent US9113629B2, “4-amino-6-(4-substituted-phenyl)-picolinates and 6-amino-2-(4-substituted-phenyl)-pyrimidine-4-carboxylates and their use as herbicides” (DOW AGROSCIENCES LLC, priority 2013, dated 2015)
Where two headings read alike, the source gives them in different places.

Key:
Assay in all cases: Post-emergent Test III, herbicidal activity in wheat and barley
Format in all cases: in vivo
[1] = test system: HORSS: barley, including spring and winter (Hordeum vulgare); conditions: for GR20 HORSS: probit analysis
Outline: (§1)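 GR20, GR50, GR80 and GR90 come from probit analysis of visual injury scores (0 = none, 100 = complete kill) taken 21 d after treatment. Foliar application was by track sprayer delivering 187 L/ha at five rates, from high down to 1/16×, onto greenhouse plants at the 2–3 leaf stage, with solvent-blank controls.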

[2] = test system: TRZSS: wheat, including spring and winter (Triticum aestivum); conditions: for GR20 TRZSS: probit analysis
Outline: as §1

[3] = test system: SASKR: Russian thistle (Salsola iberica)
Outline: as §1

[4] = test system: MATSS: scented mayweed (Matricaria chamomilla), pineappleweed (Matricaria matricarioides); conditions: for pest or weed control at 35 g/ha / pest or weed control at 70 g/ha: Matricaria chamomilla, post-emergence, 504 h; for pest or weed control at 35 g/ha: 35 g ai/ha; for pest or weed control at 70 g/ha: 70 g ai/ha
Outline: as §1

[5] = test system: VERPE: bird's-eye speedwell (veronica persica); conditions: 21 days after application
Outline: as §1

[6] = test system: VIOSS: wild pansy (Viola tricolor), field violet (Viola arvensis)
Outline: as §1

[7] = test system: KCHSC: kochia (Kochia scoparia); conditions: for pest or weed control at 35 g/ha / pest or weed control at 70 g/ha: Bassia scoparia, post-emergence, 504 h; for pest or weed control at 35 g/ha: 35 g ai/ha; for pest or weed control at 70 g/ha: 70 g ai/ha
Outline: as §1

[8] = dose for 20 percent growth reduction (crop), 21 days after application
[9] = probit analysis, dose for 50 percent growth reduction, 21 days after application
[10] = probit analysis, dose for 80 percent growth reduction, 21 days after application
[11] = 21 days after application, read-out: Visual Gorowth Reduction (%) 21 days After Application MATSS
[12] = 21 days after application, read-out: Visual Gorowth Reduction (%) 21 days After Application KCHSC
[13] = Post-emergent Test III, 35 g ai/ha
[14] = Post-emergent Test III, 70 g ai/ha
[15] = Post-emergent Test III, 21 days after application, dose for 20% growth reduction
[16] = Post-emergent Test III, 21 days after application, dose for 20% growth reduction, probit analysis
[17] = Post-emergent Test III, 21 days after application, dose for 50% growth reduction, probit analysis
[18] = Post-emergent Test III, 21 days after application, dose for 80% growth reduction, probit analysis
[19] = Post-emergent Test III, read-out: Visual Growth Reduction (%) 21 Days After Application, MATSS
[20] = Post-emergent Test III, read-out: Visual Growth Reduction (%) 21 Days After Application, KCHSC

C#Cc1ccc(-c2nc(C(=O)O)c(Cl)c(N)c2F)c(F)c1 [Compound 108]
pest or weed control at 35 g/ha ([1]; Hordeum vulgare, post-emergence, 504 h, 35 g ai/ha, 21 days after application, read-out: Visual Gorowth Reduction (%) 21 days After Application HORSS): 30 to 44% | pest or weed control at 70 g/ha ([1]; Hordeum vulgare, post-emergence, 504 h, 70 g ai/ha, 21 days after application, read-out: Visual Gorowth Reduction (%) 21 days After Application HORSS): 45 to 59% | GR20 HORSS [1, 8]: 16 g ai/ha | pest or weed control at 35 g/ha ([2]; Triticum aestivum, post-emergence, 504 h, 35 g ai/ha, 21 days after application, read-out: Visual Gorowth Reduction (%) 21 days After Application TRZSS): 75 to 84% | pest or weed control at 70 g/ha ([2]; Triticum aestivum, post-emergence, 504 h, 70 g ai/ha, 21 days after application, read-out: Visual Gorowth Reduction (%) 21 days After Application TRZSS): 75 to 84% | GR20 TRZSS [2, 8]: 6 g ai/ha | pest or weed control at 35 g/ha ([3]; Salsola tragus, post-emergence, 504 h, 35 g ai/ha, 21 days after application, read-out: Visual Gorowth Reduction (%) 21 days After Application SASKR): 0 to 29% | pest or weed control at 70 g/ha ([3]; Salsola tragus, post-emergence, 504 h, 70 g ai/ha, 21 days after application, read-out: Visual Gorowth Reduction (%) 21 days After Application SASKR): 30 to 44% | GR50 SASKR [3, 9]: 136 g ai/ha | GR80 SASKR [3, 10]: >140 g ai/ha | pest or weed control at 35 g/ha [4, 11]: 30 to 44% | pest or weed control at 70 g/ha [4, 11]: 60 to 74% | GR50 MATSS [4, 9]: 58 g ai/ha | GR80 MATSS [4, 10]: >140 g ai/ha | pest or weed control at 35 g/ha ([5]; Veronica persica, post-emergence, 504 h, 35 g ai/ha, read-out: Visual Gorowth Reduction (%) 21 days After Application VERPE): 60 to 74% | pest or weed control at 70 g/ha ([5]; Veronica persica, post-emergence, 504 h, 70 g ai/ha, read-out: Visual Gorowth Reduction (%) 21 days After Application VERPE): 75 to 84% | GR50 VERPE ([5]; probit analysis, dose for 50 percent growth reduction): 22 g ai/ha | GR80 VERPE ([5]; probit analysis, dose for 80 percent growth reduction): 67 g ai/ha | pest or weed control at 35 g/ha ([6]; Viola tricolor, post-emergence, 504 h, 35 g ai/ha, 21 days after application, read-out: Visual Gorowth Reduction (%) 21 days After Application VIOSS): 30 to 44% | pest or weed control at 70 g/ha ([6]; Viola tricolor, post-emergence, 504 h, 70 g ai/ha, 21 days after application, read-out: Visual Gorowth Reduction (%) 21 days After Application VIOSS): 30 to 44% | GR50 VIOSS [6, 9]: 85 g ai/ha | GR80 VIOSS [6, 10]: >140 g ai/ha | pest or weed control at 35 g/ha [7, 12]: 0 to 29% | pest or weed control at 70 g/ha [7, 12]: 0 to 29% | GR50 KCHSC [7, 9]: >140 g ai/ha | GR80 KCHSC [7, 10]: >140 g ai/ha

COC(=O)c1nc(-c2ccc(C(F)(F)F)c(F)c2F)c(F)c(N)c1Cl [Compound 149]
Visual Growth Reduction (%) 21 Days After Application, HORSS [1, 13]: D (60-74) | Visual Growth Reduction (%) 21 Days After Application, HORSS [1, 14]: C (75-84) | GR20 HORSS [1, 15]: 21 g ai/ha | Visual Growth Reduction (%) 21 Days After Application, TRZSS [2, 13]: E (45-59) | Visual Growth Reduction (%) 21 Days After Application, TRZSS [2, 14]: C (75-84) | GR20 TRZSS [2, 15]: 20 g ai/ha | Visual Growth Reduction (%) 21 Days After Application, SASKR [3, 13]: D (60-74) | Visual Growth Reduction (%) 21 Days After Application, SASKR [3, 14]: D (60-74) | GR20, SASKR [3, 16]: 6 g ai/ha | GR50 SASKR [3, 17]: 24 g ai/ha | GR80 SASKR [3, 18]: 100 g ai/ha | pest or weed control at 35 g/ha [4, 19]: 45 to 59% | pest or weed control at 70 g/ha [4, 19]: 60 to 74% | GR20, MATSS [4, 16]: 9 g ai/ha | GR50 MATSS [4, 17]: 38 g ai/ha | GR80 MATSS [4, 18]: >140 g ai/ha | Visual Growth Reduction (%) 21 Days After Application, VIOSS [6, 13]: F (30-44) | Visual Growth Reduction (%) 21 Days After Application, VIOSS [6, 14]: D (60-74) | GR20, VIOSS [6, 16]: 11 g ai/ha | GR50 VIOSS [6, 17]: 44 g ai/ha | GR80 VIOSS [6, 18]: >140 g ai/ha | pest or weed control at 35 g/ha [7, 20]: 30 to 44% | pest or weed control at 70 g/ha [7, 20]: 60 to 74% | GR20, KCHSC [7, 16]: 18 g ai/ha | GR50 KCHSC [7, 17]: 56 g ai/ha | GR80 KCHSC [7, 18]: >140 g ai/ha

COC(=O)c1nc(-c2ccc(C(F)(F)F)c(F)c2)c(F)c(N)c1Cl [Compound 165]
Visual Growth Reduction (%) 21 Days After Application, HORSS [1, 13]: C (75-84) | Visual Growth Reduction (%) 21 Days After Application, HORSS [1, 14]: B (85-94) | GR20 HORSS [1, 15]: 9 g ai/ha | Visual Growth Reduction (%) 21 Days After Application, TRZSS [2, 13]: D (60-74) | Visual Growth Reduction (%) 21 Days After Application, TRZSS [2, 14]: C (75-84) | GR20 TRZSS [2, 15]: 8 g ai/ha | Visual Growth Reduction (%) 21 Days After Application, SASKR [3, 13]: C (75-84) | Visual Growth Reduction (%) 21 Days After Application, SASKR [3, 14]: B (85-94) | GR50 SASKR [3, 17]: 4 g ai/ha | GR80 SASKR [3, 18]: 46 g ai/ha | pest or weed control at 35 g/ha [4, 19]: 0 to 29% | pest or weed control at 70 g/ha [4, 19]: 45 to 59% | GR50 MATSS [4, 17]: 81 g ai/ha | GR80 MATSS [4, 18]: >140 g ai/ha | Visual Growth Reduction (%) 21 Days After Application, VIOSS [6, 13]: F (30-44) | Visual Growth Reduction (%) 21 Days After Application, VIOSS [6, 14]: D (60-74) | GR50 VIOSS [6, 17]: 55 g ai/ha | GR80 VIOSS [6, 18]: >140 g ai/ha | pest or weed control at 35 g/ha [7, 20]: 85 to 94% | pest or weed control at 70 g/ha [7, 20]: 85 to 94% | GR50 KCHSC [7, 17]: 9 g ai/ha | GR80 KCHSC [7, 18]: 30 g ai/ha
